This is an account of results in patent US12570655B2, “Cysteine covalent modifiers of AKT1 and uses thereof” (Terremoto Biosciences, Inc., priority 2023, dated 2026).

Like-named read-outs stand apart in the source and are kept apart here.

Common to all, as to format: cell-based
For one assay, the target named is T1, AKT1 E17K (Homo sapiens, UniProt P31749, E17K).
T1 construct: expressed in transfected cells; host or cells: HEK293
The experiment in a line: Live cell AKT1 E17K target engagement by NanoBRET competitive probe displacement. Particulars: HEK293 cells transfected with kinase-NanoLuciferase fusion, 2 h at 37° C. In short, it runs like this: (§1)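 HEK293 cells transiently expressing kinase–NanoLuciferase fusions (overnight transfection) were treated with serial compound dilutions plus fluorescent ATP-competitive tracer at ~EC50 concentration for 2 h at 37 °C. BRET ratio E600/E460 measured after substrate and extracellular luciferase inhibitor addition; IC50 from log(inhibitor)–response Hill fit.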
In general terms: In BRET a luciferase serves as donor, and the signal depends on an acceptor being close.

The target in another assay is T2, AKT2 (Homo sapiens, UniProt P31751).
T2 construct: expressed in transfected cells; host or cells: HEK293
The experiment in a line: Live cell AKT2 target engagement by NanoBRET competitive probe displacement. The conditions noted are these: HEK293 cells transfected with kinase-NanoLuciferase fusion, 2 h at 37° C. In short, it runs like this:
as §1

The next assay has as its target T3, AKT1 WT (Homo sapiens, UniProt P31749).
T3 construct: expressed in transfected cells; host or cells: HEK293
The experiment in a line: Live cell AKT1 WT target engagement by NanoBRET competitive probe displacement. The conditions noted are these: HEK293 cells transfected with kinase-NanoLuciferase fusion, 2 h at 37° C. Put shortly: as §1

For assay [1], the system named is LAPC4 prostate cancer cells. Description: Antiproliferative effects in LAPC4 cells (CellTiter Glo). The conditions noted are these: LAPC4 cells (AKT1 E17K allele), read-out: LAPC4 proliferation IC50. Put shortly:
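LAPC4 cells were cultured in IMDM with 12% FBS and 1% P/S, seeded at 1,000 cells/well and exposed to compound dilutions in DMSO. After 72 h, intracellular ATP was measured by CellTiter Glo luminescence, and IC50 values came from a log(inhibitor) vs. response Hill fit.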

T1 sequence (P31749 whole entry E17K): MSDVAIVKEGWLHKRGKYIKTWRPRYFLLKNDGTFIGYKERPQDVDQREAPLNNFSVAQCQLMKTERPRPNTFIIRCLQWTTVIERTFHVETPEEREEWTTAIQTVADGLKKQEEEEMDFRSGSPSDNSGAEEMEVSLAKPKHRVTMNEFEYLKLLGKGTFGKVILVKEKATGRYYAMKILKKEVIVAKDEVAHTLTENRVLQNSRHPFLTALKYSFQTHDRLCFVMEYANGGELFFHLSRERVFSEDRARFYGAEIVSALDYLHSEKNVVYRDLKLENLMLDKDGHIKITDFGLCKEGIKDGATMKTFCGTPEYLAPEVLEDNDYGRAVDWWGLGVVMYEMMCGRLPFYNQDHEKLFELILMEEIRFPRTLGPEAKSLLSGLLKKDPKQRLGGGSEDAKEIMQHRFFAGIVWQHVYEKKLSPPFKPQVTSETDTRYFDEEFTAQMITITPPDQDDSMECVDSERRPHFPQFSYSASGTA
T2 sequence (P31751 whole entry): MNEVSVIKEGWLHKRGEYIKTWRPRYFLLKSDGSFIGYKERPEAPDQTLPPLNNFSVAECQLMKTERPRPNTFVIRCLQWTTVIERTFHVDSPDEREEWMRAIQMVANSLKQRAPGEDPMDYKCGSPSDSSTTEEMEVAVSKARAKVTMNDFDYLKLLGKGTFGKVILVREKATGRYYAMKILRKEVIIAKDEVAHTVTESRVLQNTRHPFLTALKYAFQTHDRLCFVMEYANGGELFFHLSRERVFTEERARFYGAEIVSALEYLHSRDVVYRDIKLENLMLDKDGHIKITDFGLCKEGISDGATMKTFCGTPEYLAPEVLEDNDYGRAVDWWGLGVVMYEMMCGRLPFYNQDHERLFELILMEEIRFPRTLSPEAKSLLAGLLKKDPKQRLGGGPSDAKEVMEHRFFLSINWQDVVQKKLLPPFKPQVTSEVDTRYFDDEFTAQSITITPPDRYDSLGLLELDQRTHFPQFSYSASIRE
T3 sequence (P31749 whole entry): as the sequence (P31749 whole entry E17K) above, with K17E counted along it

Turning to `CC#CC(=O)NCc1ccccc1C(=O)N[C@H]1CCc2cc(-n3c(-c4cccnc4N)nc4ccc(-n5cccn5)nc43)ccc21` [Example 267, N-[(1S)-5-[2-(2-aminopyridin-3-yl)-5-(pyrazol-1-yl)imidazo[4,5-b]pyridin-3-yl]-2,3-dihydro-1H-inden-1-yl]-2-(but-2-ynamidomethyl)benzamide], the IC50 at AKT1 E17K was 0.0059 µM; at AKT2 it was 0.0536 µM; on AKT1 WT, 0.0864 µM; in assay [1] (Homo sapiens, LAPC4, 72 h), 0.335 µM.
With `C=CC(=O)N1CCC(N[C@H]2CCc3cc(-n4c(-c5cccnc5N)nc5ccc(-n6cccn6)nc54)ccc32)C(OC)C1` (single isomer, unassigned) [Example 115, 1-((3*,4*)-4-(((S)-5-(2-(2-aminopyridin-3-yl)-5-(1H-pyrazol-1-yl)-3H-imidazo[4,5-b]pyridin-3-yl)-2,3-dihydro-1H-inden-1-yl)amino)-3-methoxypiperidin-1-yl)prop-2-en-1-one], the IC50 on AKT1 E17K is 0.00926 µM; at AKT2, 0.0404 µM; on AKT1 WT, 0.00819 µM; in assay [1] (72 h), 0.0407 µM.
Turning to `C=CC(=O)N1CCC(N[C@H]2CCCc3cc(-n4c(-c5cccnc5N)nc5ccc(-n6cccn6)nc54)ccc32)CC1` [Example 154, (S)-1-(4-((6-(2-(2-aminopyridin-3-yl)-5-(1H-pyrazol-1-yl)-3H-imidazo[4,5-b]pyridin-3-yl)-1,2,3,4-tetrahydronaphthalen-1-yl)amino)piperidin-1-yl)prop-2-en-1-one], the IC50 on AKT1 E17K was greater than 1 µM; at AKT2, greater than 10 µM; on AKT1 WT, 0.301 µM; in assay [1] (Homo sapiens, LAPC4, 72 h), greater than 10 µM.
With `CN(CC#N)C(=O)N1CCC(N[C@H]2CCc3cc(-n4c(-c5cccnc5N)nc5ccc(-n6cccn6)nc54)ccc32)CC1` [Example 128, 4-{[(1S)-5-[2-(2-aminopyridin-3-yl)-5-(pyrazol-1-yl)imidazo[4,5-b]pyridin-3-yl]-2,3-dihydro-1H-inden-1-yl]amino-N}-(cyanomethyl)-N-methylpiperidine-1-carboxamide], the IC50 on AKT1 E17K turned out to be 0.00862 µM; on AKT2, 0.043 µM; at AKT1 WT it was 0.0106 µM; in assay [1] (Homo sapiens, LAPC4, 72 h), 0.0448 µM.
The like results for `C=CC(=O)N1CCC(N[C@H]2CCc3cc(-n4c(-c5cccnc5N)nc5ccc(-n6ccc(C)n6)nc54)ccc32)CC1` [Example 243, 1-(4-{[(1S)-5-[2-(2-aminopyridin-3-yl)-5-(3-methylpyrazol-1-yl)imidazo[4,5-b]pyridin-3-yl]-2,3-dihydro-1H-inden-1-yl]amino}piperidin-1-yl)prop-2-en-1-one] were, in that order, 0.0173 µM, 0.0985 µM, 0.217 µM and 0.15 µM.
The like results for `C=CC(=O)N1CCC(N[C@H]2CCc3cc(-n4c(-c5cccnc5N)nc5ccc(-n6ccc(C(C)C)n6)nc54)ccc32)CC1` [Example 281, 1-(4-{[(1S)-5-[2-(2-aminopyridin-3-yl)-5-(3-isopropylpyrazol-1-yl)imidazo[4,5-b]pyridin-3-yl]-2,3-dihydro-1H-inden-1-yl]amino}piperidin-1-yl)prop-2-en-1-one] were, in that order, 0.0154 µM, 0.0808 µM, 0.254 µM and 0.253 µM.
In the case of `C=CC(=O)N1CCC(NC2c3ccc(-n4c(-c5cccnc5N)nc5ccc(-n6cccn6)nc54)cc3CC2O)CC1` (single isomer, unassigned) [Example 150, 1-(4-(((1*,2*)-5-(2-(2-aminopyridin-3-yl)-5-(1H-pyrazol-1-yl)-3H-imidazo[4,5-b]pyridin-3-yl)-2-hydroxy-2,3-dihydro-1H-inden-1-yl)amino)piperidin-1-yl)prop-2-en-1-one], the IC50 at AKT1 E17K is 0.213 µM; on AKT2, 0.781 µM; at AKT1 WT, 0.0311 µM; in assay [1] (72 h) it was 0.478 µM.
For the molecule `C=CC(=O)N1CCC(N[C@@H]2c3ccc(-n4c(-c5ccccc5F)nc5ccc(-n6cccn6)nc54)cc3CC2F)C[C@H]1C` (single isomer, unassigned) [Example 317, 1-((2R,4*)-4-(((1R,2*)-2-fluoro-5-(2-(2-fluorophenyl)-5-(1H-pyrazol-1-yl)-3H-imidazo[4,5-b]pyridin-3-yl)-2,3-dihydro-1H-inden-1-yl)amino)-2-methylpiperidin-1-yl)prop-2-en-1-one], the IC50 at AKT1 E17K was found to be 0.0203 µM; at AKT2, 0.0684 µM; at AKT1 WT it was 2.59 µM; in assay [1] (72 h) it was 0.464 µM.
Consider `C=CC(=O)Nc1ccccc1CN[C@H]1CCc2cc(-n3c(-c4cccnc4N)nc4ccc(-n5cccn5)nc43)ccc21` [Example 39, N-[2-({[(1S)-5-[2-(2-aminopyridin-3-yl)-5-(pyrazol-1-yl)imidazo[4,5-b]pyridin-3-yl]-2,3-dihydro-1H-inden-1-yl]amino}methyl)phenyl]prop-2-enamide], for which the IC50 at AKT1 E17K was determined as 0.0949 µM; at AKT2 it was 0.0948 µM; at AKT1 WT, 0.0642 µM; in assay [1] (Homo sapiens, LAPC4, 72 h), 1.6 µM.
For `C=CC(=O)N1CCC(N[C@H]2CCc3cc(-n4c(-c5cccnc5N)nc5ccc(-c6cc7n(n6)CCOC7)nc54)ccc32)CC1` [Example 121, (S)-1-(4-((5-(2-(2-aminopyridin-3-yl)-5-(6,7-dihydro-4H-pyrazolo[5,1-c][1,4]oxazin-2-yl)-3H-imidazo[4,5-b]pyridin-3-yl)-2,3-dihydro-1H-inden-1-yl)amino)piperidin-1-yl)prop-2-en-1-one] the same measures were 0.174 µM, 0.358 µM, 0.0433 µM and 0.248 µM.
As for `C=CC(=O)N1CCC(N[C@H]2CCc3cc(-n4c(-c5cccnc5N)nc5ccc(-n6cccn6)nc54)ccc32)C[C@H]1COC` (single isomer, unassigned) [Example 130, 1-[(2S,4*)-4-{[(1S)-5-[2-(2-aminopyridin-3-yl)-5-(pyrazol-1-yl)imidazo[4,5-b]pyridin-3-yl]-2,3-dihydro-1H-inden-1-yl]amino}-2-(methoxymethyl)piperidin-1-yl]prop-2-en-1-one], the IC50 came to 0.0764 µM on AKT1 E17K, 0.672 µM at AKT2, 0.0265 µM on AKT1 WT and 0.174 µM in assay [1] (72 h).
As to `Nc1ncccc1-c1nc2ccc(-n3cccn3)nc2n1-c1ccc2c(c1)CC[C@@H]2NC1CCN(C(=O)C(F)Cl)CC1` (stereo partly drawn) [Example 173, 1-(4-{[(1S)-5-[2-(2-aminopyridin-3-yl)-5-(pyrazol-1-yl)imidazo[4,5-b]pyridin-3-yl]-2,3-dihydro-1H-inden-1-yl]amino}piperidin-1-yl)-2-chloro-2-fluoroethanone], the IC50 came to 0.0565 µM on AKT1 E17K; 0.324 µM on AKT2; 1.34 µM on AKT1 WT; 0.748 µM in assay [1] (Homo sapiens, LAPC4, 72 h).
For `C=CC(=O)N1CCC(N[C@H]2CCc3cc(-n4c(-c5cccnc5N)nc5ccc(-n6cccn6)nc54)ccc32)C(O)C1` (single isomer, unassigned) [Example 140, 1-[(3*,4*)-4-{[(1S)-5-[2-(2-aminopyridin-3-yl)-5-(pyrazol-1-yl)imidazo[4,5-b]pyridin-3-yl]-2,3-dihydro-1H-inden-1-yl]amino}-3-hydroxypiperidin-1-yl]prop-2-en-1-one], the IC50 is greater than 1 µM at AKT1 E17K, 3.58 µM on AKT2, 0.37 µM on AKT1 WT and 1.49 µM in assay [1] (72 h).
As for `C=CC(=O)N1CCC(N[C@H]2CCc3cc(-n4c(-c5cccnc5F)nc5ccc(-n6cccn6)nc54)ccc32)CC1` [Example 251, 1-(4-{[(1S)-5-[2-(2-fluoropyridin-3-yl)-5-(pyrazol-1-yl)imidazo[4,5-b]pyridin-3-yl]-2,3-dihydro-1H-inden-1-yl]amino}piperidin-1-yl)prop-2-en-1-one], the IC50 at AKT1 E17K was 0.113 µM; on AKT2, 0.28 µM; on AKT1 WT it was 2.16 µM; in assay [1] (Homo sapiens, LAPC4, 72 h), 2.23 µM.
`CC#CC(=O)Nc1ccccc1C(=O)N[C@H]1CCc2cc(-n3c(-c4cccnc4N)nc4ccc(-n5cccn5)nc43)ccc21` [Example 9, N-[(1S)-5-[2-(2-aminopyridin-3-yl)-5-(pyrazol-1-yl)imidazo[4,5-b]pyridin-3-yl]-2,3-dihydro-1H-inden-1-yl]-2-(but-2-ynamido)benzamide]: the IC50 on AKT1 E17K came out at 0.0969 µM; at AKT2, 0.44 µM; on AKT1 WT it was 0.0219 µM; in assay [1] (Homo sapiens, LAPC4, 72 h), 0.528 µM.
Take `C=CC(=O)N1CCC(N[C@H]2CC(O)c3cc(-n4c(-c5cccnc5N)nc5ccc(-n6cccn6)nc54)ccc32)CC1` (single isomer, unassigned) [Example 219, 1-(4-(((1S,3*)-5-(2-(2-aminopyridin-3-yl)-5-(1H-pyrazol-1-yl)-3H-imidazo[4,5-b]pyridin-3-yl)-3-hydroxy-2,3-dihydro-1H-inden-1-yl)amino)piperidin-1-yl)prop-2-en-1-one]: the IC50 was 0.0458 µM at AKT1 E17K, 0.0957 µM on AKT2, 0.279 µM on AKT1 WT and 0.0771 µM in assay [1] (72 h).
Take `C=CC(=O)N1CCC(NC2CCc3cc(-n4c(-c5cccnc5N)nc5ccc(C6CC6(F)F)nc54)ccc32)CC1` (single isomer, unassigned) [Example 245, 1-(4-(((*)-5-(2-(2-aminopyridin-3-yl)-5-((*)-2,2-difluorocyclopropyl)-3H-imidazo[4,5-b]pyridin-3-yl)-2,3-dihydro-1H-inden-1-yl)amino)piperidin-1-yl)prop-2-en-1-one]: the IC50 on AKT1 E17K was determined as 0.0376 µM; on AKT2 it was 0.354 µM; on AKT1 WT, 0.715 µM; in assay [1] (72 h), 0.526 µM.
